# Patent US20090143285A1, “TARGET PROTEIN AND TARGET GENE FOR DRUG DISCOVERY AND SCREENING METHOD” (REVERSE PROTEOMICS RESEARCH INSTITUTE CO., LTD., priority 2005, published 2009)
# “Also recorded” adds a separate entry of the source. Read-outs that look alike come from different tables or passages of the source.
# How the values were obtained:
# [1] = test system: FLJXXXXX-derived proteins; test: SEC/MS spin column interaction analysis of FLJXXXXX-derived proteins and various compounds (Tables 30-1 to 30-4); format: binding, human; conditions: SEC spin column filtrate, spectral intensity increased with doses of compound and protein
# [2] = target: FLJ40298-derived protein (Homo sapiens, UniProt Q8N5S3, P254L/R275T); test: SEC/MS interaction analysis, FLJ40298-derived protein (hypothetical protein FLJ40298); format: binding
# Description: (§1) To analyze the interactions between commonly used drugs and proteins expressed from human full-length cDNA clones while keeping both the proteins and the compounds in non-modified, non-immobilized state, size exclusion chromatography (SEC) and mass analysis were used in combination. The specific procedures are shown below.
# (§2) The compound-protein mixture prepared in step 1 was subjected to chromatography using an SEC column, the compound and the protein were separated by SEC, and the compound that interacted with the bound compound or protein contained in the protein fraction was analyzed using a mass analyzer.
# (§3) Protein concentrations were measured using BCA Protein Assay (PIERCE), in consideration of the purity calculated by SDS-PAGE.
# (§4) Mass analysis was performed using LCQ DECA XP (Thermoelectron) or Q-TOF micro (Micromass), equipped with an ESI probe. The LC pump used was Agilent 1100 (Yokogawa Analytical Systems), and the autosampler used was HTC-PAL (CTC Analytics) equipped with a cooling stacker. The SEC column used was a micro-LC column or a 384-well spin column. […]
# (§5) In the 384-well spin column method, Unifilter 100 (Whatman), packed with 10 μL (dry volume) of Bio-Gel P6 (BIO-RAD) and swollen with milliQ water, was used as the SEC column. […] The SEC spin column was mounted on an acetonitrile-aliquoted 384-well U-bottom plate and centrifuged; the SEC spin column filtrate, which is a protein fraction, was recovered in 50% acetonitrile. The protein precipitate produced by the acetonitrile was removed via centrifugation and filtration for deproteinization; the resulting filtrate was concentrated by centrifugal concentration and re-dissolved in 10 μL of 50% methanol to obtain a mass analysis sample. The mobile phase supplied to the mass analyzer was 0.1% formic acid/50% methanol solution in the positive ion mode, and 0.1% ammonia/50% methanol solution in the negative ion mode; these mobile phases were used at a flow rate of 40 μL/min. 2-μL of mass analysis samples were injected using an autosampler at 2-minute intervals; the mass spectral intensity of the compound was measured to retrieve the spectral intensity of the pharmaceutical compound contained in the SEC spin column filtrate (protein fraction eluted from SEC).
# [3] = target: T1, FLJ12857-derived protein (Homo sapiens, UniProt O75781, T107A); test: SEC/MS interaction analysis, FLJ12857-derived protein (Paralemmin; PALM); format: binding
# T1 construct: His-tag (N); made in house; host or cells: Escherichia coli BL21star(DE3)pLysS
# T1 sequence (O75781 74-343 isoform O75781-2 T107A): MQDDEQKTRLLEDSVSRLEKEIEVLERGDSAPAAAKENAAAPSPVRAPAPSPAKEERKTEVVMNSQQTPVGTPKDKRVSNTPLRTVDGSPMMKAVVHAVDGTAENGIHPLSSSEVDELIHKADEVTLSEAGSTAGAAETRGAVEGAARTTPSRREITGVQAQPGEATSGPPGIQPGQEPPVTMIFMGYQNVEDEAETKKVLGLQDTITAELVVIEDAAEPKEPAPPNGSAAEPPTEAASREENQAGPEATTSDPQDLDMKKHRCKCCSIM
# Description: as §1, §2, §3, §4, §5
# [4] = target: T2, FLJ38897-derived protein (Homo sapiens, UniProt P57764); test: SEC/MS interaction analysis, FLJ38897-derived protein (GSDMDC1); format: binding; conditions: spin column method; mixture with protein vs buffer solution alone; data not shown
# T2 construct: His-tag (N); made in house; host or cells: Escherichia coli BL21star(DE3)pLysS
# T2 sequence (P57764 265-484): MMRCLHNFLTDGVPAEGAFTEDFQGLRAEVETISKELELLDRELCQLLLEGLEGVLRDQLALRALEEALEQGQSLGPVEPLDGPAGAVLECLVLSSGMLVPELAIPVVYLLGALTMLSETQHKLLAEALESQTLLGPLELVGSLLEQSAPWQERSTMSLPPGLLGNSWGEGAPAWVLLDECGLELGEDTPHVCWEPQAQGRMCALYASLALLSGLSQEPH
# Description: as §1, §2, §3, §4, §5
# [5] = test system: FLJ20972-derived protein
# Description: as §1, §2, §3
# Mass analysis was performed using LCQ DECA XP (Thermoelectron) or Q-TOF micro (Micromass), equipped with an ESI probe. The LC pump used was Agilent 1100 (Yokogawa Analytical Systems), and the autosampler used was HTC-PAL (CTC Analytics) equipped with a cooling stacker. The SEC column used was a micro-LC column or a 384-well spin column.
# The SEC column used for the micro-LC method was a TSKgel super SW2000 (TOSOH) cartridge column (1.0 mm ID×10 mm) or a TSKgel super SW2000 (TOSOH) column (1.0 mm ID×30 mm), with 10 mM ammonium acetate aqueous solution serving as the mobile phase. A conditioning solvent (0.5% formic acid/methanol solution in the positive ion mode, 0.5% ammonia/methanol solution in the negative ion mode) was mixed downstream of the SEC column via a Tee connector; the column was connected to the ESI of the mass analyzer. The flow rate was set at 40 μL/min for the SEC column side, and 10 μL/min for the conditioning solvent side.
# Specifically, if the protein and the compound interact with each other, the acceleration of the elution of the compound molecules that are bound to the protein when the protein is overtaking the compound in the SEC column occurs, resulting in a change in the mass chromatogram of the compound depending on the presence or absence of the protein.
# as §5
# [6] = test system: FLJ41550-derived protein; test: SEC/MS interaction analysis, FLJ41550-derived protein (SAMHD1); format: binding, human
# Description: as §1, §2, §3, §4, §5
# [7] = compound 12.5 μM, protein 10 μM
# [8] = compound 12.5 μM, protein 25 μM
# [9] = compound 62.5 μM, protein 10 μM
# [10] = compound 62.5 μM, protein 25 μM
# [11] = spin column method, doses of both compound and protein varied
# FLJ40298-derived protein, sequence (Q8N5S3 122-287 P254L/R275T): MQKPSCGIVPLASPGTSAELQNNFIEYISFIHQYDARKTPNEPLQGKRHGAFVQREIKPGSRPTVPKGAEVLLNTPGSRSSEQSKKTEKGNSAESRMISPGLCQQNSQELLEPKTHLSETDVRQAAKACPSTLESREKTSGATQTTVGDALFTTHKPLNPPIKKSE
smiles,measurement,setting,value
CCCCOc1cc(C(=O)OCCN(CC)CC)ccc1N [benoxinate],FLJ No of the derived protein with which the compound was judged to exhibit a concentration-dependent interaction,[1],FLJ40298
same,spectrum intensity of the compound in the SEC spin column filtrate,"[2]; compound 12.5 μM, protein 0 μM",202235
same,spectrum intensity of the compound in the SEC spin column filtrate,"[2]; compound 12.5 μM, protein 5 μM",285949
same,spectrum intensity of the compound in the SEC spin column filtrate,[2]; [7],263958
same,spectrum intensity of the compound in the SEC spin column filtrate,[2]; [8],299357
same,spectrum intensity of the compound in the SEC spin column filtrate,"[2]; compound 25 μM, protein 0 μM",557220
same,spectrum intensity of the compound in the SEC spin column filtrate,"[2]; compound 25 μM, protein 5 μM",1519215
same,spectrum intensity of the compound in the SEC spin column filtrate,"[2]; compound 25 μM, protein 10 μM",552560
same,spectrum intensity of the compound in the SEC spin column filtrate,"[2]; compound 25 μM, protein 25 μM",583103
same,spectrum intensity of the compound in the SEC spin column filtrate,"[2]; compound 62.5 μM, protein 0 μM",815144
same,spectrum intensity of the compound in the SEC spin column filtrate,"[2]; compound 62.5 μM, protein 5 μM",225597
same,spectrum intensity of the compound in the SEC spin column filtrate,[2]; [9],1509221
same,spectrum intensity of the compound in the SEC spin column filtrate,[2]; [10],2027848
same,interaction judged from spectrum intensity of the compound in the SEC spin column filtrate (protein fraction eluted from SEC),[2]; [11],concentration-dependent interaction
CC(=O)O[C@H]1C[C@@H]2CC[C@@H]3[C@H](CC[C@@]4(C)[C@H]3C[C@H]([N+]3(C)CCCCC3)[C@@H]4OC(C)=O)[C@@]2(C)C[C@@H]1[N+]1(C)CCCCC1 [pancuronium bromide],spectrum intensity of the compound in the SEC spin column filtrate,"[3]; compound 12.5 μM, protein 0 μM",50699
same,spectrum intensity of the compound in the SEC spin column filtrate,"[3]; compound 12.5 μM, protein 5 μM",65210
same,spectrum intensity of the compound in the SEC spin column filtrate,[3]; [7],163033
same,spectrum intensity of the compound in the SEC spin column filtrate,[3]; [8],193021
same,spectrum intensity of the compound in the SEC spin column filtrate,"[3]; compound 25 μM, protein 0 μM",170740
same,spectrum intensity of the compound in the SEC spin column filtrate,"[3]; compound 25 μM, protein 5 μM",491313
same,spectrum intensity of the compound in the SEC spin column filtrate,"[3]; compound 25 μM, protein 10 μM",747644
same,spectrum intensity of the compound in the SEC spin column filtrate,"[3]; compound 25 μM, protein 25 μM",725722
same,spectrum intensity of the compound in the SEC spin column filtrate,"[3]; compound 62.5 μM, protein 0 μM",1417386
same,spectrum intensity of the compound in the SEC spin column filtrate,"[3]; compound 62.5 μM, protein 5 μM",1918601
same,spectrum intensity of the compound in the SEC spin column filtrate,[3]; [9],2231237
same,spectrum intensity of the compound in the SEC spin column filtrate,[3]; [10],2511342
same,interaction judged from spectrum intensity of the compound in the SEC spin column filtrate (protein fraction eluted from SEC),[3]; [11],concentration-dependent interaction
same,FLJ No of the derived protein with which the compound was judged to exhibit a concentration-dependent interaction,[1],FLJ12857
C1CCC(C(CC2CCCCN2)C2CCCCC2)CC1 (centres unmarked) [perhexyline],interaction judged from mass spectrum peak intensity of the compound in the spin column filtrate,[4],there was an interaction
same,FLJ No of the derived protein with which the compound was judged to exhibit a concentration-dependent interaction,[1]; listed as perhexiline,FLJ37909; also recorded: FLJ38897
CNCCCC1c2ccccc2C=Cc2ccccc21 [protriptyline],spectrum intensity of the compound in the SEC spin column filtrate,"[5]; compound 12.5 μM, protein 0 μM",39179
same,spectrum intensity of the compound in the SEC spin column filtrate,"[5]; compound 12.5 μM, protein 5 μM",27260
same,spectrum intensity of the compound in the SEC spin column filtrate,[5]; [7],39545
same,spectrum intensity of the compound in the SEC spin column filtrate,[5]; [8],44522
same,spectrum intensity of the compound in the SEC spin column filtrate,"[5]; compound 25 μM, protein 0 μM",53214
same,spectrum intensity of the compound in the SEC spin column filtrate,"[5]; compound 25 μM, protein 5 μM",76771
same,spectrum intensity of the compound in the SEC spin column filtrate,"[5]; compound 25 μM, protein 10 μM",105694
same,spectrum intensity of the compound in the SEC spin column filtrate,"[5]; compound 25 μM, protein 25 μM",132099
same,spectrum intensity of the compound in the SEC spin column filtrate,"[5]; compound 62.5 μM, protein 0 μM",239324
same,spectrum intensity of the compound in the SEC spin column filtrate,[5]; [9],390017
same,spectrum intensity of the compound in the SEC spin column filtrate,[5]; [10],754873
same,interaction judged from spectrum intensity of the compound in the SEC spin column filtrate (protein fraction eluted from SEC),[5]; [11],concentration-dependent interaction
"CN1CCN(CCCN2c3ccccc3Sc3ccc(S(=O)(=O)N(C)C)cc32)CC1 [thioproperasine, thioproperazine]",spectrum intensity of the compound in the SEC spin column filtrate,"[6]; compound 12.5 μM, protein 0 μM",252410
same,spectrum intensity of the compound in the SEC spin column filtrate,"[6]; compound 12.5 μM, protein 5 μM",377673
same,spectrum intensity of the compound in the SEC spin column filtrate,[6]; [7],478699
same,spectrum intensity of the compound in the SEC spin column filtrate,[6]; [8],941513
same,spectrum intensity of the compound in the SEC spin column filtrate,"[6]; compound 25 μM, protein 0 μM",262646
same,spectrum intensity of the compound in the SEC spin column filtrate,"[6]; compound 25 μM, protein 5 μM",778927
same,spectrum intensity of the compound in the SEC spin column filtrate,"[6]; compound 25 μM, protein 10 μM",1198533
same,spectrum intensity of the compound in the SEC spin column filtrate,"[6]; compound 25 μM, protein 25 μM",983016
same,spectrum intensity of the compound in the SEC spin column filtrate,"[6]; compound 62.5 μM, protein 0 μM",1132948
same,spectrum intensity of the compound in the SEC spin column filtrate,"[6]; compound 62.5 μM, protein 5 μM",1457362
same,spectrum intensity of the compound in the SEC spin column filtrate,[6]; [9],2445959
same,spectrum intensity of the compound in the SEC spin column filtrate,[6]; [10],2997892
same,interaction judged from spectrum intensity of the compound in the SEC spin column filtrate (protein fraction eluted from SEC),[6]; [11],concentration-dependent interaction
same,FLJ No of the derived protein with which the compound was judged to exhibit a concentration-dependent interaction,[1],FLJ37909; also recorded: FLJ41550
